Measured values taken from the NIST ThermoML archive (doi:10.1016/j.jct.2018.12.001).
Several values for one entry are separate records, joined by “and”; a condition that tells them apart may be missing. Equal entries are not always repeated. Numbers after ± are expanded uncertainties.

Assays:
[1] = Crystal; for vapor or sublimation pressure: Calculated from knudsen effusion weight loss; for Normal melting temperature: DTA
[2] = Molar enthalpy of transition or fusion; settings: Crystal; DSC

With c1ccc(-c2cnc(-c3ccccc3)o2)cc1 [2,5-diphenyloxazole] the “vapor or sublimation pressure” value ([1]; 328.18 K) was 7.2e-05 ± 2e-05 kPa, the “vapor or sublimation pressure” value ([1]; 329.28 K) was 8.2e-05 ± 2e-05 kPa and 8.1e-05 ± 2e-05 kPa and the “vapor or sublimation pressure” value ([1]; 330.3 K) was 9.2e-05 ± 2e-05 kPa and 9.4e-05 ± 2e-05 kPa. The “vapor or sublimation pressure” value ([1]; 331.19 K) was 0.000103 ± 2e-05 kPa and 0.000104 ± 2e-05 kPa, the “vapor or sublimation pressure” value ([1]; 332.29 K) was 0.000118 ± 2e-05 kPa and 0.000116 ± 2e-05 kPa and the “vapor or sublimation pressure” value ([1]; 333.29 K) was 0.000133 ± 2.1e-05 kPa and 0.000135 ± 2.1e-05 kPa. For the same compound, the “vapor or sublimation pressure” value ([1]; 334.19 K) was 0.000149 ± 2.1e-05 kPa and 0.000148 ± 2.1e-05 kPa, the “vapor or sublimation pressure” value ([1]; 335.17 K) was 0.000167 ± 2.1e-05 kPa and 0.000166 ± 2.1e-05 kPa and the “vapor or sublimation pressure” value ([1]; 336.2 K) was 0.000189 ± 2.1e-05 kPa and 0.000188 ± 2.1e-05 kPa. For the same compound, the “vapor or sublimation pressure” value ([1]; 337.18 K) was 0.000209 ± 2.1e-05 kPa and 0.000212 ± 2.1e-05 kPa and 0.000215 ± 2.1e-05 kPa, the “vapor or sublimation pressure” value ([1]; 338.17 K) was 0.000241 ± 2.2e-05 kPa and 0.000237 ± 2.2e-05 kPa and 0.000238 ± 2.2e-05 kPa and the “vapor or sublimation pressure” value ([1]; 339.29 K) was 0.00027 ± 2.2e-05 kPa and 0.000269 ± 2.2e-05 kPa and 0.000268 ± 2.2e-05 kPa. For the same compound, the “vapor or sublimation pressure” value ([1]; 340.25 K) was 0.000301 ± 2.3e-05 kPa and 0.0003 ± 2.3e-05 kPa, the “vapor or sublimation pressure” value ([1]; 341.3 K) was 0.00034 ± 2.3e-05 kPa and 0.000343 ± 2.3e-05 kPa and 0.000342 ± 2.3e-05 kPa and the “vapor or sublimation pressure” value ([1]; 342.3 K) was 0.000385 ± 2.4e-05 kPa and 0.000382 ± 2.4e-05 kPa and 0.000384 ± 2.4e-05 kPa. For the same compound, the Normal melting temperature [1] was 71.08 ± 0.43 °C and the “Molar enthalpy of transition or fusion” value [2] was 5.48 ± 0.127 kcal/mol.
For O=C1C=C(c2ccccc2)C(=O)O1 [phenylmaleic anhydride], the “vapor or sublimation pressure” value ([1]; 319.14 K) was 0.000102 ± 2e-05 kPa and 0.0001 ± 2e-05 kPa, the “vapor or sublimation pressure” value ([1]; 321.22 K) was 0.000125 ± 2e-05 kPa and 0.000126 ± 2.1e-05 kPa and 0.00013 ± 2.1e-05 kPa and the “vapor or sublimation pressure” value ([1]; 323.2 K) was 0.000161 ± 2.1e-05 kPa and 0.000164 ± 2.1e-05 kPa and 0.000165 ± 2.1e-05 kPa. The “vapor or sublimation pressure” value ([1]; 325.15 K) was 0.000202 ± 2.1e-05 kPa and 0.0002 ± 2.1e-05 kPa and 0.000205 ± 2.1e-05 kPa, the “vapor or sublimation pressure” value ([1]; 327.17 K) was 0.000252 ± 2.2e-05 kPa and 0.00025 ± 2.2e-05 kPa and 0.000255 ± 2.2e-05 kPa and the “vapor or sublimation pressure” value ([1]; 329.3 K) was 0.000323 ± 2.3e-05 kPa and 0.000321 ± 2.3e-05 kPa and 0.000325 ± 2.3e-05 kPa. The “vapor or sublimation pressure” value ([1]; 331.18 K) was 0.000398 ± 2.4e-05 kPa and 0.0004 ± 2.5e-05 kPa and 0.000394 ± 2.4e-05 kPa, the “vapor or sublimation pressure” value ([1]; 333.2 K) was 0.0005 ± 2.7e-05 kPa and 0.000496 ± 2.7e-05 kPa and the “vapor or sublimation pressure” value ([1]; 335.36 K) was 0.000633 ± 3e-05 kPa and 0.000631 ± 3e-05 kPa and 0.000637 ± 3e-05 kPa. For the same compound, the “vapor or sublimation pressure” value ([1]; 337.13 K) was 0.000764 ± 3.4e-05 kPa and 0.000748 ± 3.3e-05 kPa and 0.000772 ± 3.4e-05 kPa, the “vapor or sublimation pressure” value ([1]; 339.23 K) was 0.000919 ± 3.8e-05 kPa and 0.000934 ± 3.9e-05 kPa and 0.000926 ± 3.8e-05 kPa and the “vapor or sublimation pressure” value ([1]; 341.31 K) was 0.001191 ± 9.6e-05 kPa and 0.001182 ± 9.5e-05 kPa and 0.001186 ± 9.5e-05 kPa. For the same compound, the Normal melting temperature [1] was 120.20 ± 0.43 °C and the “Molar enthalpy of transition or fusion” value [2] was 6.2 ± 0.151 kcal/mol.
With O=C1OC(=O)C(c2ccccc2)=C1c1ccccc1 [diphenylmaleic anhydride] the “vapor or sublimation pressure” value ([1]; 361.07 K) was 0.000112 ± 2e-05 kPa and 0.000113 ± 2e-05 kPa and 0.000111 ± 2e-05 kPa, the “vapor or sublimation pressure” value ([1]; 363.19 K) was 0.00014 ± 2.1e-05 kPa and 0.000138 ± 2.1e-05 kPa and the “vapor or sublimation pressure” value ([1]; 365.3 K) was 0.000178 ± 2.1e-05 kPa and 0.000175 ± 2.1e-05 kPa and 0.000177 ± 2.1e-05 kPa. For the same compound, the “vapor or sublimation pressure” value ([1]; 367.1 K) was 0.000213 ± 2.1e-05 kPa and 0.000215 ± 2.1e-05 kPa, the “vapor or sublimation pressure” value ([1]; 369.26 K) was 0.000266 ± 2.2e-05 kPa and 0.000265 ± 2.2e-05 kPa and the “vapor or sublimation pressure” value ([1]; 371.29 K) was 0.000335 ± 2.3e-05 kPa and 0.000332 ± 2.3e-05 kPa and 0.000331 ± 2.3e-05 kPa. For the same compound, the “vapor or sublimation pressure” value ([1]; 373.08 K) was 0.000392 ± 2.4e-05 kPa and 0.000393 ± 2.4e-05 kPa and 0.000399 ± 2.4e-05 kPa, the “vapor or sublimation pressure” value ([1]; 375.28 K) was 0.000492 ± 2.7e-05 kPa and 0.000483 ± 2.6e-05 kPa and 0.000494 ± 2.7e-05 kPa and the “vapor or sublimation pressure” value ([1]; 377.3 K) was 0.00061 ± 2.9e-05 kPa and 0.0006 ± 2.9e-05 kPa and 0.00059 ± 2.9e-05 kPa. The “vapor or sublimation pressure” value ([1]; 379.19 K) was 0.000733 ± 3.3e-05 kPa and 0.000729 ± 3.3e-05 kPa and 0.00074 ± 3.3e-05 kPa, the “vapor or sublimation pressure” value ([1]; 381.16 K) was 0.000894 ± 3.7e-05 kPa and 0.000891 ± 3.7e-05 kPa and 0.000881 ± 3.7e-05 kPa and the “vapor or sublimation pressure” value ([1]; 383.2 K) was 0.001108 ± 8.8e-05 kPa and 0.001106 ± 8.8e-05 kPa and 0.00109 ± 8.6e-05 kPa. The Normal melting temperature [1] was 157.52 ± 0.44 °C and the “Molar enthalpy of transition or fusion” value [2] was 6.52 ± 0.184 kcal/mol.
